Among the data in patent US9115148B2, “Spirocyclic derivatives as histone deacetylase inhibitors” (DAC S.R.L., priority 2008, dated 2015) are IC50 values, retold here.

For assay [1], the system named is HDAC (nuclear fraction of Hela cells). In words: Assay of enzyme inhibition of HDAC (BIOMOL Kit). The assay is classed as biochemical. The conditions noted are these: substrate 200 μM, 15 min at RT. The protocol: 2.2 Assay of Enzyme Inhibition of HDAC
The in-vitro activity of HDAC inhibitors was assayed using a BIOMOL Kit, according to the instructions from the manufacturer (Biomolecular Research Laborator). 15 μl of 30× diluted nuclear fraction of Hela cells, was diluted to 50 μl with the assay buffer containing the HDAC inhibitor and the substrate (lysine with acetylated amino group on the side chain) at a concentration of 200 μM. The samples were incubated for 15 min at RT and then exposed to a developer (10 min at RT). In this last step a fluorophore was produced, whose fluorescence was measured using an excitation wavelength of 355 nm and an emission at 460 nm. The IC50 was calculated using GraphPad Software.

For assay [2], the system named is K562 cells. Kind of assay: Cell growth, CellTiter-Glo Luminescent Cell Viability Assay, K562. The assay is classed as cell-based. The note with it: Homo sapiens, 72 h incubation, read-out: IC50 antiproliferative assay K562. From the text:
(§1) CellTiter-Glo® Luminescent Cell Viability Assay (Promega) is a homogeneous method of determining the number of viable cells in culture based on quantitation of the present ATP, which indicates the presence of metabolically active cells. The homogeneous assay procedure involves addition of a single reagent (CellTiter-Glo® Reagent) directly to the cells, which leads to cell lysis and generation of a luminescent signal proportional to the amount of the ATP and the number of cells present in culture. The assay relies on the properties of a proprietary thermostable luciferase (Ultra-Glo® recombinant luciferase), which generates a luminescent signal.
(§2) K562, A549 and HCT-116 cells, in exponential growth, were incubated for 72 h with different concentrations of the inhibitors. After 72 h, a volume of CellTiter-Glo® Reagent equal to the volume of cell culture medium was added. The content was mixed for 2 min to induce cell lysis. The luminescence was recorded after further 10 min at RT in order to obtain a stabilized luminescent signal.
(§3) The IC50 was calculated using GraphPad Software.
(§4) IC50 results were allocated to one of 3 ranges as follows: Range A: IC50≦1.0 μM; Range B: from 1.0 to 3.0 μM; Range C: IC50≧3.0 μM.

For assay [3], the system named is A549 cells. In words: Cell growth, CellTiter-Glo Luminescent Cell Viability Assay, A549. The assay is classed as cell-based. The conditions noted are these: Homo sapiens, 72 h incubation, read-out: IC50 antiproliferative assay A549.
Text: as §1, §2, §3, §4

Assay [4] relates to HCT-116 cells. Kind of assay: Cell growth, CellTiter-Glo Luminescent Cell Viability Assay, HCT-116. The assay is classed as cell-based. The note with it: Homo sapiens, HCT116 cells, 72 h incubation, read-out: IC50 antiproliferative assay HCT116.
Text: as §1, §2, §3, §4
A general note: ATP-based viability assays read luminescence as a measure of living cells.

Each structure is given as a SMILES string. pIC50: −log10 of the molar value.

With `O=C(/C=C/c1ccc2c(c1)C(=O)CC1(CCN(Cc3cccnc3)CC1)O2)NO` [Example 41, (E)-3-{1′-(Pyridin-3-ylmethyl)-4-oxo-spiro[chromane-2,4′-piperidine]-6-yl}-N-hydroxy-acrylamide], the negative logarithm of the IC50 (pIC50) is 6.00 to 7.00 in assay [1], 5.52 to 6.00 in assay [2], 5.52 to 6.00 in assay [3] and at least 6.00 in assay [4].

For the molecule `O=C(/C=C/c1ccc2c(c1)C(=O)CC1(CCN(Cc3ccncc3)CC1)O2)NO` [Example 42, (E)-3-{1′-(Pyridin-4-ylmethyl)-4-oxo-spiro[chromane-2,4′-piperidine]-6-yl}-N-hydroxy-acrylamide], the pIC50 in assay [1] is 6.00 to 7.00; in assay [2], 5.52 to 6.00; in assay [3], 5.52 to 6.00; in assay [4] it was at least 6.00.

Regarding `CS(=O)(=O)N1CCC2(CC1)CC(=O)c1cc(/C=C/C(=O)NO)ccc1O2` [Example 43, (E)-3-{1′-Methanesulfonyl-4-oxo-spiro[chromane-2,4′-piperidine]-6-yl}-N-hydroxy-acrylamide], the pIC50 in assay [1] was 6.00 to 7.00; in assay [2], at most 5.52; in assay [3] it was at most 5.52; in assay [4], at most 5.52.

As to `O=C(/C=C/c1ccc2c(c1)C(=O)CC1(CCN(S(=O)(=O)c3ccccc3)CC1)O2)NO` [Example 44, (E)-3-{1′-Phenylsulfonyl-4-oxo-spiro[chromane-2,4′-piperidine]-6-yl}-N-hydroxy-acrylamide], the pIC50 in assay [1] was 6.00 to 7.00; in assay [2], 5.52 to 6.00; in assay [3], at most 5.52; in assay [4] it was 5.52 to 6.00.

In the case of `O=C(/C=C/c1ccc2c(c1)C(=O)CC1(CCN(CCCc3ccccc3)CC1)O2)NO` [Example 45, (E)-3-{1′-(3-Phenyl-propyl)-4-oxo-spiro[chromane-2,4′-piperidine]-6-yl}-N-hydroxy-acrylamide], the pIC50 in assay [1] is 6.00 to 7.00; in assay [2], at least 6.00; in assay [3], 5.52 to 6.00; in assay [4], at least 6.00.

As for `CCNC(=O)N1CCC2(CC1)CC(=O)c1cc(/C=C/C(=O)NO)ccc1O2` [Example 46, (E)-3-{1′-Ethylcarbamoyl-4-oxo-spiro[chromane-2,4′-piperidine]-6-yl}-N-hydroxy-acrylamide], the negative-log IC50 (pIC50) in assay [1] was 6.00 to 7.00; in assay [2], at most 5.52; in assay [3] it was at most 5.52; in assay [4], at most 5.52.

Turning to `O=C(/C=C/c1ccc2c(c1)C(=O)CC1(CCN(C(=O)NCc3ccccc3)CC1)O2)NO` [Example 47, (E)-3-{1′-Benzylcarbamoyl-4-oxo-spiro[chromane-2,4′-piperidine]-6-yl}-N-hydroxy-acrylamide], the negative logarithm of the IC50 (pIC50) is 6.00 to 7.00 in assay [1], at most 5.52 in assay [2], at most 5.52 in assay [3] and at most 5.52 in assay [4].

On to `O=C(/C=C/c1ccc2c(c1)C(=O)CC1(CCN(C(=O)Nc3ccccc3)CC1)O2)NO` [Example 48, (E)-3-{1′-Phenylcarbamoyl-4-oxo-spiro[chromane-2,4′-piperidine]-6-yl}-N-hydroxy-acrylamide], for which the pIC50 in assay [1] was 6.00 to 7.00; in assay [2], 5.52 to 6.00; in assay [3], at most 5.52; in assay [4] it was 5.52 to 6.00.

On to `O=C(/C=C/c1ccc2c(c1)C(=O)CC1(CCN(CCc3c[nH]c4ccccc34)CC1)O2)NO` [Example 49], for which the pIC50 in assay [1] is over 7.00; in assay [2] it was at least 6.00; in assay [3] it was at least 6.00; in assay [4] it was at least 6.00.

Regarding `O=C(/C=C/c1ccc2c(c1)C(=O)CC1(CCN(Cc3c[nH]c4ccccc34)CC1)O2)NO` [Example 50], the pIC50 is over 7.00 in assay [1], at least 6.00 in assay [2], at least 6.00 in assay [3] and at least 6.00 in assay [4].

As to `Cc1[nH]c2ccccc2c1CN1CCC2(CC1)CC(=O)c1cc(/C=C/C(=O)NO)ccc1O2` [Example 51, (E)-3-{1′-(2-Methyl-1H-indol-3-ylmethyl)-4-oxo-spiro[chromane-2,4′-piperidine]-6-yl}-N-hydroxy-acrylamide], the pIC50 in assay [1] was over 7.00; in assay [2], at least 6.00; in assay [3], at least 6.00; in assay [4], at least 6.00.

With `O=C(/C=C/c1ccc2c(c1)C(=O)CC1(CCN(Cc3ccc(-c4ccccc4)cc3)CC1)O2)NO` [Example 52, (E)-3-{1′-(Biphenyl-4-ylmethyl)-4-oxo-spiro[chromane-2,4′-piperidine]-6-yl}-N-hydroxy-acrylamide], the pIC50 was 6.00 to 7.00 in assay [1], at least 6.00 in assay [2], 5.52 to 6.00 in assay [3] and at least 6.00 in assay [4].

On to `O=C(/C=C/c1ccc2c(c1)C(=O)CC1(CCN(Cc3c[nH]c4cc(F)ccc34)CC1)O2)NO` [Example 53, (E)-3-{1′-(6-Fluoro-1H-indol-3-ylmethyl)-4-oxo-spiro[chromane-2,4′-piperidine]-6-yl}-N-hydroxy-acrylamide], for which the negative logarithm of the IC50 (pIC50) is over 7.00 in assay [1], at least 6.00 in assay [2], 5.52 to 6.00 in assay [3] and at least 6.00 in assay [4].

In the case of `O=C(/C=C/c1ccc2c(c1)C(=O)CC1(CCN(Cc3c[nH]c4ccc(F)cc34)CC1)O2)NO` [Example 54, (E)-3-{1′-(5-Fluoro-1H-indol-3-ylmethyl)-4-oxo-spiro[chromane-2,4′-piperidine]-6-yl}-N-hydroxy-acrylamide], the pIC50 in assay [1] is over 7.00; in assay [2], at least 6.00; in assay [3], at least 6.00; in assay [4], at least 6.00.

For `O=C(/C=C/c1ccc2c(c1)C(=O)CC1(CCN(CCc3ccccc3)CC1)O2)NO` [Example 55, (E)-3-{1′-(2-Phenyl-ethyl)-4-oxo-spiro[chromane-2,4′-piperidine]-6-yl}-N-hydroxy-acrylamide], the pIC50 in assay [1] was 6.00 to 7.00; in assay [2] it was at least 6.00; in assay [3], at least 6.00; in assay [4] it was at least 6.00.

In the case of `O=C(/C=C/c1ccc2c(c1)C(=O)CC1(CCN(CCc3ccc(F)cc3)CC1)O2)NO` [Example 56, (E)-3-{1′-[2-(4-Fluoro-phenyl)-ethyl]-4-oxo-spiro[chromane-2,4′-piperidine]-6-yl}-N-hydroxy-acrylamide], the pIC50 in assay [1] was over 7.00; in assay [2], at least 6.00; in assay [3], at least 6.00; in assay [4], at least 6.00.

`O=C(/C=C/c1ccc2c(c1)C(=O)CC1(CCN(CCc3ccc(Cl)cc3)CC1)O2)NO` [Example 57, (E)-3-{1′-[2-(4-Chloro-phenyl)-ethyl]-4-oxo-spiro[chromane-2,4′-piperidine]-6-yl}-N-hydroxy-acrylamide]: the negative logarithm of the IC50 (pIC50) is 6.00 to 7.00 in assay [1], at least 6.00 in assay [2], at least 6.00 in assay [3] and at least 6.00 in assay [4].

Take `COc1ccc(CCN2CCC3(CC2)CC(=O)c2cc(/C=C/C(=O)NO)ccc2O3)cc1` [Example 58, (E)-3-{1′-[2-(4-Methoxy-phenyl)-ethyl]-4-oxo-spiro[chromane-2,4′-piperidine]-6-yl}-N-hydroxy-acrylamide]: the pIC50 in assay [1] was over 7.00; in assay [2] it was at least 6.00; in assay [3], at least 6.00; in assay [4] it was at least 6.00.

`O=C(/C=C/c1ccc2c(c1)C(=O)CC1(CCN(CCc3ccccc3F)CC1)O2)NO` [Example 59, (E)-3-{1′-[2-(2-Fluoro-phenyl)-ethyl]-4-oxo-spiro[chromane-2,4′-piperidine]-6-yl}-N-hydroxy-acrylamide]: the pIC50 was 6.00 to 7.00 in assay [1], at least 6.00 in assay [2], at least 6.00 in assay [3] and at least 6.00 in assay [4].

`COc1cccc(CCN2CCC3(CC2)CC(=O)c2cc(/C=C/C(=O)NO)ccc2O3)c1` [Example 60, (E)-3-{1′-[2-(3-Methoxy-phenyl)-ethyl]-4-oxo-spiro[chromane-2,4′-piperidine]-6-yl}-N-hydroxy-acrylamide]: the pIC50 in assay [1] is 6.00 to 7.00; in assay [2], at least 6.00; in assay [3] it was at least 6.00; in assay [4], at least 6.00.

Regarding `Nc1ccc(CCN2CCC3(CC2)CC(=O)c2cc(/C=C/C(=O)NO)ccc2O3)cc1` [Example 62, (E)-3-{1′-[2-(4-Amino-phenyl)-ethyl]-4-oxo-spiro[chromane-2,4′-piperidine]-6-yl}-N-hydroxy-acrylamide], the pIC50 in assay [1] is over 7.00; in assay [2] it was at least 6.00; in assay [3], at least 6.00; in assay [4] it was at least 6.00.

Regarding `CNc1ccc(CCN2CCC3(CC2)CC(=O)c2cc(/C=C/C(=O)NO)ccc2O3)cc1` [Example 63, (E)-3-{1′-[2-(4-Methylamino-phenyl)-ethyl]-4-oxo-spiro[chromane-2,4′-piperidine]-6-yl}-N-hydroxy-acrylamide], the pIC50 in assay [1] was over 7.00; in assay [2] it was at least 6.00; in assay [3] it was at least 6.00; in assay [4], at least 6.00.

By pIC50 is commonly meant the negative decadic logarithm of the IC50, by convention in mol/L.
